We go through 1 compound from publication PMC5218480 (PLoS ONE, 2017).

This assay concerns MV-4-11 cells. In words: Gene expression microarray analysis (Affymetrix PrimeView) and GSEA. The assay is classed as cell-based, human. Set-up: RFU PODN (11730768_x_at) / Fold change /veh PODN (11730768_x_at) / RFU LINC00158 (11744669_a_at) / Fold change /veh LINC00158 (11744669_a_at) / RFU DUSP10 (11751237_a_at) / Fold change /veh DUSP10 (11751237_a_at) / RFU ID3 (11757404_x_at) / Fold change /veh ID3 (11757404_x_at) / RFU PLEKHG5 (11737974_s_at) / Fold change /veh PLEKHG5 (11737974_s_at) / RFU LRRC4B (11730491_at) / Fold change /veh LRRC4B (11730491_at) / RFU GIMAP4 (11747438_a_at) / Fold change /veh GIMAP4 (11747438_a_at) / RFU KRT8 (11758183_x_at) / Fold change /veh KRT8 (11758183_x_at) / RFU CNN1 (11734310_a_at) / Fold change /veh CNN1 (11734310_a_at) / RFU VPS37D (11726825_at) / Fold change /veh VPS37D (11726825_at) / RFU C10orf10 (11716522_x_at) / Fold change /veh C10orf10 (11716522_x_at) / RFU KIR2DL2 /// KIR2DL4 /// KIR2DL5A /// KIR2DL5B /// KIR2DS1 /// KIR2DS2 /// KIR2DS3 /// KIR2DS4 /// KIR3DL3 /// KIR3DL3 /// KIR3DS1 (11738374_at) / Fold change /veh KIR2DL2 /// KIR2DL4 /// KIR2DL5A /// KIR2DL5B /// KIR2DS1 /// KIR2DS2 /// KIR2DS3 /// KIR2DS4 /// KIR3DL3 /// KIR3DL3 /// KIR3DS1 (11738374_at) / RFU C1QL1 (11718748_at) / Fold change /veh C1QL1 (11718748_at) / RFU TMPRSS4 (11747572_a_at) / Fold change /veh TMPRSS4 (11747572_a_at) / RFU HAMP (11756126_x_at) / Fold change /veh HAMP (11756126_x_at) / RFU RNFT2 (11725882_a_at) / Fold change /veh RNFT2 (11725882_a_at) / RFU NR4A2 (11747474_a_at) / Fold change /veh NR4A2 (11747474_a_at) / RFU ABCC12 (11746883_a_at) / Fold change /veh ABCC12 (11746883_a_at) / RFU TMEM136 (11760407_x_at) / Fold change /veh TMEM136 (11760407_x_at) / RFU CLDN22 /// WWC2 (11732394_at) / Fold change /veh CLDN22 /// WWC2 (11732394_at) / RFU HLA-DPB1 (11760878_x_at) / Fold change /veh HLA-DPB1 (11760878_x_at) / RFU SPINT1 (11716480_a_at) / Fold change /veh SPINT1 (11716480_a_at) / RFU GAP43 (11754022_s_at) / Fold change /veh GAP43 (11754022_s_at) / RFU A4GNT (11735810_at) / Fold change /veh A4GNT (11735810_at) / RFU PRB3 (11715151_x_at) / Fold change /veh PRB3 (11715151_x_at) / RFU TUBB4B (11761932_at) / Fold change /veh TUBB4B (11761932_at) / RFU CAPN14 (11732068_a_at) / Fold change /veh CAPN14 (11732068_a_at) / RFU TMCC2 (11721928_a_at) / Fold change /veh TMCC2 (11721928_a_at) / RFU IRGQ (11745062_a_at) / Fold change /veh IRGQ (11745062_a_at) / RFU FAM174B (11720279_a_at) / Fold change /veh FAM174B (11720279_a_at) / RFU TMPRSS4 (11748680_a_at) / Fold change /veh TMPRSS4 (11748680_a_at) / RFU FAM212B (11763350_a_at) / Fold change /veh FAM212B (11763350_a_at) / RFU PLEKHG5 (11743358_a_at) / Fold change /veh PLEKHG5 (11743358_a_at) / RFU ZSCAN30 (11745921_a_at) / Fold change /veh ZSCAN30 (11745921_a_at) / RFU CMKLR1 (11741424_a_at) / Fold change /veh CMKLR1 (11741424_a_at) / RFU LOC101060620 /// MAPK8IP1 (11723275_at) / Fold change /veh LOC101060620 /// MAPK8IP1 (11723275_at) / RFU SPTSSB (11747773_x_at) / Fold change /veh SPTSSB (11747773_x_at) / RFU PRSS12 (11739890_at) / Fold change /veh PRSS12 (11739890_at) / RFU BIN1 (11741810_x_at) / Fold change /veh BIN1 (11741810_x_at) / RFU WNT11 (11732464_a_at) / Fold change /veh WNT11 (11732464_a_at) / RFU C10orf10 (11716521_a_at) / Fold change /veh C10orf10 (11716521_a_at) / RFU C5orf56 (11738089_at) / Fold change /veh C5orf56 (11738089_at) / RFU CYB561 (11721691_x_at) / Fold change /veh CYB561 (11721691_x_at) / RFU ANKRD19P (11752326_a_at) / Fold change /veh ANKRD19P (11752326_a_at) / RFU OR2T12 /// OR2T33 /// OR2T8 (11738714_s_at) / Fold change /veh OR2T12 /// OR2T33 /// OR2T8 (11738714_s_at) / RFU VCAN (11748164_a_at) / Fold change /veh VCAN (11748164_a_at) / RFU JSRP1 (11732532_at) / Fold change /veh JSRP1 (11732532_at) / RFU KRTAP10-11 (11738290_x_at) / Fold change /veh KRTAP10-11 (11738290_x_at) / RFU MYO3A (11730013_a_at) / Fold change /veh MYO3A (11730013_a_at) / RFU EBF3 (11725865_a_at) / Fold change /veh EBF3 (11725865_a_at) / RFU CAMK2N1 (11719241_x_at) / Fold change /veh CAMK2N1 (11719241_x_at) / RFU C5orf56 (11738088_a_at) / Fold change /veh C5orf56 (11738088_a_at) / RFU OLFML3 (11715873_a_at) / Fold change /veh OLFML3 (11715873_a_at) / RFU LOC100653217 /// NTM (11731650_a_at) / Fold change /veh LOC100653217 /// NTM (11731650_a_at) / RFU MAPK11 (11762145_a_at) / Fold change /veh MAPK11 (11762145_a_at) / RFU FIZ1 (11724087_x_at) / Fold change /veh FIZ1 (11724087_x_at) / RFU OASL (11726364_x_at) / Fold change /veh OASL (11726364_x_at) / RFU SOX15 (11748057_x_at) / Fold change /veh SOX15 (11748057_x_at) / RFU CD79A (11719716_a_at) / Fold change /veh CD79A (11719716_a_at) / RFU HIST1H1D (11736915_at) / Fold change /veh HIST1H1D (11736915_at) / RFU CASKIN2 (11723855_a_at) / Fold change /veh CASKIN2 (11723855_a_at) / RFU LOC730098 (11760151_x_at) / Fold change /veh LOC730098 (11760151_x_at) / RFU OR4N2 (11742367_at) / Fold change /veh OR4N2 (11742367_at) / RFU PRRT2 (11749266_a_at) / Fold change /veh PRRT2 (11749266_a_at) / RFU SNX32 (11753110_a_at) / Fold change /veh SNX32 (11753110_a_at) / RFU CDHR5 (11726645_a_at) / Fold change /veh CDHR5 (11726645_a_at) / RFU RCAN1 (11760418_a_at) / Fold change /veh RCAN1 (11760418_a_at) / RFU FAM167A (11723789_a_at) / Fold change /veh FAM167A (11723789_a_at) / RFU FAM26E (11764081_at) / Fold change /veh FAM26E (11764081_at) / RFU ISYNA1 (11749810_s_at) / Fold change /veh ISYNA1 (11749810_s_at) / RFU ACY1 (11761880_at) / Fold change /veh ACY1 (11761880_at) / RFU 11764098_at / Fold change /veh 11764098_at / RFU SAMD14 (11745864_x_at) / Fold change /veh SAMD14 (11745864_x_at) / RFU NPB (11741838_a_at) / Fold change /veh NPB (11741838_a_at) / RFU TMPRSS6 (11731388_a_at) / Fold change /veh TMPRSS6 (11731388_a_at) / RFU KRTAP10-2 (11738614_at) / Fold change /veh KRTAP10-2 (11738614_at) / RFU ARHGAP8 /// PRR5-ARHGAP8 (11727945_x_at) / Fold change /veh ARHGAP8 /// PRR5-ARHGAP8 (11727945_x_at) / RFU KRTAP5-7 /// NADSYN1 (11734609_at) / Fold change /veh KRTAP5-7 /// NADSYN1 (11734609_at) / RFU RASL12 (11751679_a_at) / Fold change /veh RASL12 (11751679_a_at) / RFU CDKN2B (11736163_a_at) / Fold change /veh CDKN2B (11736163_a_at) / RFU PRF1 (11729649_at) / Fold change /veh PRF1 (11729649_at) / RFU, ZNF638 /// ZNF638-IT1 / Fold change vs veh, ZNF638 /// ZNF638-IT1 / RFU, PANK3 / Fold change vs veh, PANK3 / RFU, SH3YL1 / Fold change vs veh, SH3YL1 / RFU, ZEB2 / Fold change vs veh, ZEB2 / RFU, NRIP1 / Fold change vs veh, NRIP1 / RFU, PTTG1IP / Fold change vs veh, PTTG1IP / RFU, CAPN2 / Fold change vs veh, CAPN2 / RFU, MED14 / Fold change vs veh, MED14 / RFU, SNORA58 / Fold change vs veh, SNORA58 / RFU, C1orf63 / Fold change vs veh, C1orf63 / RFU, LRRFIP1 / Fold change vs veh, LRRFIP1 / RFU, NDUFAF7 / Fold change vs veh, NDUFAF7 / RFU, SLC12A2 / Fold change vs veh, SLC12A2 / RFU, IBTK / Fold change vs veh, IBTK / RFU, ESF1 / Fold change vs veh, ESF1 / Fold change vs veh, TMEM50B / RFU, TAOK1 / Fold change vs veh, TAOK1 / RFU, ACBD3 / Fold change vs veh, ACBD3 / RFU, TMA16 / Fold change vs veh, TMA16 / RFU, RWDD3 / Fold change vs veh, RWDD3 / RFU, BCAT1 / Fold change vs veh, BCAT1 / RFU, EDEM3 / Fold change vs veh, EDEM3 / RFU, TMEM33 / Fold change vs veh, TMEM33 / RFU, WDR75 / Fold change vs veh, WDR75 / RFU, AHCTF1 / Fold change vs veh, AHCTF1 / RFU, TFRC / Fold change vs veh, TFRC / RFU, ZDHHC17 / Fold change vs veh, ZDHHC17 / RFU, NOM1 / Fold change vs veh, NOM1 / RFU, ARL8B / Fold change vs veh, ARL8B / RFU, ZBTB11 / Fold change vs veh, ZBTB11 / RFU, TAMM41 / Fold change vs veh, TAMM41 / RFU, KIAA1704 /// LOC100996395 / Fold change vs veh, KIAA1704 /// LOC100996395 / RFU, ING1 / Fold change vs veh, ING1 / RFU, TRMT61B / Fold change vs veh, TRMT61B / RFU, FUBP3 / Fold change vs veh, FUBP3 / RFU, TP53 / Fold change vs veh, TP53 / RFU, TNKS2 / Fold change vs veh, TNKS2 / RFU, ZFP14 / Fold change vs veh, ZFP14 / RFU, ACTR2 / Fold change vs veh, ACTR2 / RFU, PPP3R1 / Fold change vs veh, PPP3R1 / RFU, PIK3R1 / Fold change vs veh, PIK3R1 / RFU, HNRNPA1 / Fold change vs veh, HNRNPA1 / RFU, RNF170 / Fold change vs veh, RNF170 / RFU, ZNF28 / Fold change vs veh, ZNF28 / RFU, RNGTT / Fold change vs veh, RNGTT / RFU, OGT / Fold change vs veh, OGT / RFU, BRD1 / Fold change vs veh, BRD1 / RFU, MARS / Fold change vs veh, MARS / RFU, ZNF655 / Fold change vs veh, ZNF655 / RFU, FAHD1 / Fold change vs veh, FAHD1 / RFU, BDP1 / Fold change vs veh, BDP1 / RFU, LRRCC1 / Fold change vs veh, LRRCC1 / RFU, ARID1A / Fold change vs veh, ARID1A / RFU, ZNF146 / Fold change vs veh, ZNF146 / RFU, ZNF330 / Fold change vs veh, ZNF330 / RFU, GPN3 / Fold change vs veh, GPN3 / RFU, C9orf123 / Fold change vs veh, C9orf123 / RFU, N4BP2L2 / Fold change vs veh, N4BP2L2 / RFU, ARFIP1 / Fold change vs veh, ARFIP1 / RFU, FAM179B / Fold change vs veh, FAM179B / RFU, BCL10 / Fold change vs veh, BCL10 / RFU, UHRF1BP1L / Fold change vs veh, UHRF1BP1L / RFU, BET1 / Fold change vs veh, BET1 / RFU, CNOT2 / Fold change vs veh, CNOT2 / RFU, ZNF268 / Fold change vs veh, ZNF268 / Fold change vs veh, ZNF507 / RFU, DGCR2 / Fold change vs veh, DGCR2 / RFU, WDSUB1 / Fold change vs veh, WDSUB1 / Fold change vs veh, HSP90B1 /// MIR3652 / RFU, ADSS / Fold change vs veh, ADSS / RFU, GK / Fold change vs veh, GK / RFU, ZNF148 / Fold change vs veh, ZNF148 / RFU, TAF9 / Fold change vs veh, TAF9 / RFU, SLC1A5 / Fold change vs veh, SLC1A5 / RFU, SLMO2 / Fold change vs veh, SLMO2 / RFU, ABCC4 / Fold change vs veh, ABCC4 / RFU, LOC101060439 /// RAP1B / Fold change vs veh, LOC101060439 /// RAP1B / RFU, RFX7 / Fold change vs veh, RFX7 / RFU, GTPBP10 / Fold change vs veh, GTPBP10 / RFU, CNEP1R1 / Fold change vs veh, CNEP1R1 / RFU, BIVM-ERCC5 /// ERCC5 / Fold change vs veh, BIVM-ERCC5 /// ERCC5 / RFU, ILF3 / Fold change vs veh, ILF3 / RFU 11762660_at / Fold change /veh 11762660_at / RFU VCAN (11757783_s_at) / Fold change /veh VCAN (11757783_s_at) / RFU DDX43 (11728927_at) / Fold change /veh DDX43 (11728927_at) / RFU KRT8 (11758188_x_at) / Fold change /veh KRT8 (11758188_x_at) / RFU NKD1 (11759106_at) / Fold change /veh NKD1 (11759106_at) / RFU SRD5A1 (11742802_a_at) / Fold change /veh SRD5A1 (11742802_a_at) / RFU TPSAB1 /// TPSB2 (11721975_s_at) / Fold change /veh TPSAB1 /// TPSB2 (11721975_s_at) / RFU GSTM3 (11746129_a_at) / Fold change /veh GSTM3 (11746129_a_at) / RFU IL23R (11737362_x_at) / Fold change /veh IL23R (11737362_x_at) / RFU TMEM51 (11727254_a_at) / Fold change /veh TMEM51 (11727254_a_at) / RFU PIWIL2 (11732686_x_at) / Fold change /veh PIWIL2 (11732686_x_at) / RFU ORM1 (11744905_x_at) / Fold change /veh ORM1 (11744905_x_at) / RFU CCDC152 (11743942_at) / Fold change /veh CCDC152 (11743942_at) / RFU ECM1 (11717891_a_at) / Fold change /veh ECM1 (11717891_a_at) / RFU IL23R (11748794_a_at) / Fold change /veh IL23R (11748794_a_at) / RFU TNFAIP8L3 (11732012_x_at) / Fold change /veh TNFAIP8L3 (11732012_x_at) / RFU MBOAT4 (11741988_at) / Fold change /veh MBOAT4 (11741988_at) / RFU 11764193_at / Fold change /veh 11764193_at / RFU TMEM53 (11763286_at) / Fold change /veh TMEM53 (11763286_at) / RFU MAGEB2 (11727129_at) / Fold change /veh MAGEB2 (11727129_at) / RFU TMEM200A (11744735_a_at) / Fold change /veh TMEM200A (11744735_a_at) / RFU CCDC152 (11751479_a_at) / Fold change /veh CCDC152 (11751479_a_at) / RFU FAM211A (11726209_a_at) / Fold change /veh FAM211A (11726209_a_at) / RFU RGS16 (11746705_a_at) / Fold change /veh RGS16 (11746705_a_at) / RFU VCAN (11755009_s_at) / Fold change /veh VCAN (11755009_s_at) / RFU RHOB (11743442_s_at) / Fold change /veh RHOB (11743442_s_at) / RFU RGS16 (11720943_a_at) / Fold change /veh RGS16 (11720943_a_at) / RFU RGS16 (11720944_at) / Fold change /veh RGS16 (11720944_at) / RFU, VPS4B / Fold change vs veh, VPS4B / RFU, CREB1 / Fold change vs veh, CREB1 / RFU, DNAJC13 / Fold change vs veh, DNAJC13 / RFU, GNAQ / Fold change vs veh, GNAQ / RFU, CDK5R1 / Fold change vs veh, CDK5R1 / RFU, ZRANB3 / Fold change vs veh, ZRANB3 / RFU, CUL4A / Fold change vs veh, CUL4A / RFU, CCNY / Fold change vs veh, CCNY / RFU, UFL1 / Fold change vs veh, UFL1 / RFU, COG3 / Fold change vs veh, COG3 / RFU, DIAPH2 / Fold change vs veh, DIAPH2 / RFU, SKA2 / Fold change vs veh, SKA2 / RFU, AFF3 / Fold change vs veh, AFF3 / RFU, LMF1 / Fold change vs veh, LMF1 / RFU, IPO11 / Fold change vs veh, IPO11 / RFU, DFFB / Fold change vs veh, DFFB / RFU, FOXP1 / Fold change vs veh, FOXP1 / RFU, CARD8 / Fold change vs veh, CARD8 / RFU, STRN3 / Fold change vs veh, STRN3 / RFU, ADK / Fold change vs veh, ADK / RFU, RASSF2 / Fold change vs veh, RASSF2 / RFU, WIPF1 / Fold change vs veh, WIPF1 / RFU, LARP1B / Fold change vs veh, LARP1B / RFU, RASA1 / Fold change vs veh, RASA1 / RFU, RB1 / Fold change vs veh, RB1 / RFU, PPFIA1 / Fold change vs veh, PPFIA1 / RFU, MAT2A / Fold change vs veh, MAT2A / RFU, CCT5 / Fold change vs veh, CCT5 / RFU, WDR92 / Fold change vs veh, WDR92 / RFU, CUX1 / Fold change vs veh, CUX1 / RFU, TTC7A / Fold change vs veh, TTC7A / RFU, TMEM135 / Fold change vs veh, TMEM135 / RFU, DEPTOR / Fold change vs veh, DEPTOR / RFU, CPM / Fold change vs veh, CPM / RFU, DNAJB6 / Fold change vs veh, DNAJB6 / RFU, CACNA2D3 / Fold change vs veh, CACNA2D3 / RFU, DTX4 / Fold change vs veh, DTX4 / RFU, TFCP2 / Fold change vs veh, TFCP2 / RFU, GMCL1 /// GMCL1P1 / Fold change vs veh, GMCL1 /// GMCL1P1 / RFU, AEBP2 / Fold change vs veh, AEBP2 / RFU, SNHG1 /// SNORD22 /// SNORD25 /// SNORD26 /// SNORD27 /// SNORD28 /// SNORD29 /// SNORD31 / Fold change vs veh, SNHG1 /// SNORD22 /// SNORD25 /// SNORD26 /// SNORD27 /// SNORD28 /// SNORD29 /// SNORD31 / Fold change (Aza/veh), C12orf56 (ProbeSet 11735607_a_at) / Fold change (ACY-1035/veh), C12orf56 (ProbeSet 11735607_a_at) / Fold change (Aza/veh), FGFR1OP (ProbeSet 11751329_s_at) / Fold change (ACY-1035/veh), FGFR1OP (ProbeSet 11751329_s_at) / Fold change (Aza/veh), VPS36 (ProbeSet 11739960_a_at) / Fold change (ACY-1035/veh), VPS36 (ProbeSet 11739960_a_at) / RFU SYPL1 (11715823_x_at) / Fold change /veh SYPL1 (11715823_x_at) / RFU IGFBP7 (11715501_s_at) / Fold change /veh IGFBP7 (11715501_s_at) / RFU REEP3 (11722064_at) / Fold change /veh REEP3 (11722064_at) / RFU IGLL1 (11728026_x_at) / Fold change /veh IGLL1 (11728026_x_at): dose or concentration left out as unconfirmed. Conditions: ProbeSet 11717702_a_at; LIST D.

`Nc1ccc(-c2cccs2)cc1NC(=O)c1ccc2c(c1)cc(C1CC1)n2CCN1CCOCC1` [ACY-1035]: the “Fold change vs veh, RB1” value is listed as 0.96.
